Measured values taken from US20210267978A1, “NANOPARTICLE FORMULATIONS OF IKE AND METHODS OF USE THEREOF” (The Trustees of Columbia University in the City of New York, priority 2018, published 2021).
Where two headings read alike, the source gives them in different places.

How the values were obtained:
[1] = tested on: SUDHL6 xenograft tumor tissue; experiment: qPCR in mouse tumor tissue after one IKE dose; type: in vivo, NCG mice; details: single dose IKE 50 mg/kg, starting at 3 h
Description: NCG mice 6-weeks of age were injected with 10 million SUDHL-6 cells subcutaneously. Visible tumors appeared after 2 weeks. Tumor size was measured by electronic caliper every 2 days and calculated using the formula: 0.5×length×width^2. After another 2 weeks, mice were randomly separated into group of 3 mice per cage with roughly tumor size (1200 mm^3). Mice were dosed at 50 mg/kg IKE, 22 mg/kg IKE, 22 mg/kg IKE PEG-PLGA nanoparticles (equal to 600 mg/kg PEG-PLGA) using IP at one time and samples were collected at 0, 1, 2, 3, 4, 6, and 24 h with three mice per time point. Mice were dosed with Vehicle 1 and Vehicle 2 (600 mg/kg PEG-PLGA) by IP and samples were collected at 24 h. […] Plasma samples were collected and analyzed as described above. […] After drying, the samples were resuspended in 100 μL of methanol and analyzed on the LC-MS with each sample analyzed twice. […] The concentration of IKE in the sample was determined by comparison against a standard curve of IKE in the range of 25 to 2,500 ng/mL. […] Pharmacokinetics parameters of IKE were assessed using Prism fitted with Lognormal of one phase exponential decay. […]
To perform qPCR analysis in mouse tumor tissue, ˜20 mg of tumor tissue was prepared and kept on dry ice. […] RNA was reverse transcribed to cDNA then used in quantitative PCR experiment following the same steps used in cell qPCR experiment.

[2] = Pharmacokinetic analysis in mice with three administration routes (plasma, LC-MS); type: in vivo; details: NOD/SCID mice; for AUC(0-t) / Cmax / Tmax / half-life / concentration at 8 h: mouse; for concentration at 8 h: read-out: Clast
Description: NOD/SCID mice 12-weeks of age and ˜28 g weight were weighed before injection and divided into groups of 3 mice per cage. IKE was dissolved in 5% DMSO/95% Hank's Balanced Salt Solution (HBSS) (Thermo Fisher Scientific, 14025076), pH 4, to create a 5 mg/mL solution. 5% DMSO/95% HBSS at pH 4 solution (Vehicle 1) without IKE was used as vehicle. The solution was sterilized using a 0.22 μm Steriflip filter unit (Thomas Scientific 1189Q46). Mice were dosed using three different routes, IP and PO with 50 mg/kg IKE, and IV with 17 mg/kg IKE. Samples were collected at 0, 1, 3, 4, and 8 h from three mice per time point. Additionally, three mice per group were used as control by administration with equivalent amount of vehicle 1 by IP, PO, and IV, and samples were collected at 8 h. At the appropriate time, mice were sacrificed by CO2 asphyxiation for 3 min and ˜0.5 mL of blood was collected via cardiac puncture. Blood was immediately put into K3 EDTA micro tube (SARSTEDT 41.1504.105) and placed on ice. Samples were centrifuged for 10 min at 2,100×g at 4° C., plasma was then transferred to a clean tube. Plasma samples were flash frozen in liquid nitrogen and stored at −80° C. IKE was extracted from plasma by adding 900 μL acetonitrile to 100 μL plasma. Samples were mixed for at least 5 min by rotating at room temperature and were sonicated prior to […] for 10 min at 4,000×g and 4° C. The supernatant was removed and dried on a GeneVac evaporator overnight on an HPLC setting. After drying, the samples were resuspended in 100 μL of methanol and analyzed on the liquid chromatography mass spectrometry (LC-MS), with each sample analyzed twice. Quality control standard samples were prepared by dissolving IKE in 100 μL water and extraction with the same procedures to ensure that the extraction was efficient. LC-MS analysis was performed on a platform comprising a Thermo Scientific Dionex Ultimate 3000RS controlled by Chromeleon (Dionex) and a Bruker amazon SL ESI ion-trap mass spectrometer.
Chromatographic separation was performed at 20° C. on Agient Eclipse Plus C18 column (2.1×50 mm, 3.5 μm) at 20° C. over a 12 minute gradient elution. Mobile phase A consisted of water with 0.1% acetic acid v/v and mobile phase B was methanol with 0.1% acetic acid v/v. After injection, the gradient was held at 80% mobile phase A for 1 min. The gradient was then ramped in a linear fashion to 80% mobile phase over 0.5 min. Over the next 3.5 min, the gradient was ramped in linear fashion to 100% mobile phase B and held at 100% mobile phase B for 3.25 min. The gradient was then ramped in a linear fashion to 80% mobile phase over 0.5 min and held there for the duration of the run. The flow rate was set to 400 μL/min and injection volumes were 5 μL. The retention time for IKE in this gradient was 2.8 min.
Mass spectrometry analysis was performed on a Bruker Amazon SL (Billerca, MA) in positive ESI mode. Trap Control was used to control the ESI settings with the inlet capillary held at −4500 V and the end plate offset at −500 V. Nitrogen was used as the desolvation gas. Hystar v 3.2 was used to integrate the UHPLC and MS applications, and data analysis was performed with the Compass DataAnalysis software. The base peak chromatogram at m/z 655.2 with a width of ±0.1 was integrated and peak area quantified by standard curve.
Pharmacokinetics (PK) of IKE was assessed using Prism fitted with lognormal of one phase exponential decay.

Tlast ([2]; IP, 50 mg/kg IKE): 8 h
Tlast ([2]; IV, 17 mg/kg IKE): 8 h
Tlast ([2]; PO, 50 mg/kg IKE): 8 h
AUC(0-t) ([2]; IP, 50 mg/kg IKE): 53900 ng·h/mL
Cmax ([2]; IP, 50 mg/kg IKE): 19500 ng/mL
Tmax ([2]; IP, 50 mg/kg IKE): 18.6 min
half-life ([2]; IP, 50 mg/kg IKE): 109 min
concentration at 8 h ([2]; IP, 50 mg/kg IKE): 1530 ng/mL
AUC(0-t) ([2]; IV, 17 mg/kg IKE): 17000 ng·h/mL
Cmax ([2]; IV, 17 mg/kg IKE): 11400 ng/mL
Tmax ([2]; IV, 17 mg/kg IKE): 0 min
half-life ([2]; IV, 17 mg/kg IKE): 78.6 min
concentration at 8 h ([2]; IV, 17 mg/kg IKE): 16 ng/mL
AUC(0-t) ([2]; PO, 50 mg/kg IKE): 5720 ng·h/mL
Cmax ([2]; PO, 50 mg/kg IKE): 5200 ng/mL
Tmax ([2]; PO, 50 mg/kg IKE): 43.2 min
half-life ([2]; PO, 50 mg/kg IKE): 57.6 min
concentration at 8 h ([2]; PO, 50 mg/kg IKE): 48 ng/mL
Compound: CC(C)Oc1ccc(C(=O)Cn2ccnc2)cc1-n1c(CN2CCN(C(=O)COc3ccc(Cl)cc3)CC2)nc2ccccc2c1=O [IKE, Imidazole ketone erastin]
CHAC1 mRNA upregulation in tumor [1]: 2 fold
